Test system: 454973-116-R2-J3-PDC spheroids, percent test/control viability
Assay: Anticancer human tumor 454973-116-R2-J3-PDC patient-derived pancreatic carcinoma cell line growth inhibition [CLK]
Details: spheroids with HUVEC and MSC; for IC50: curve of first compound; for viability, T/C: stronger effect = lower value
Procedure, shortened: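 Patient-derived tumor cells grown as complex spheroids with HUVEC endothelial cells and mesenchymal stem cells, treated with drug combinations. Concentrations descend in half-log steps from near clinical Cmax, or from 10 microM if Cmax unknown.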

[1] = second compound 0.0316 µM, first compound 0.0316 µM
[2] = second compound 0.0316 µM, first compound 0.1 µM
[3] = second compound 0.0316 µM, first compound 0.316 µM
[4] = second compound 0.0316 µM, first compound 1 µM
[5] = second compound 0.1 µM, first compound 0.0316 µM
[6] = second compound 0.1 µM, first compound 0.1 µM
[7] = second compound 0.1 µM, first compound 0.316 µM
[8] = second compound 0.1 µM, first compound 1 µM
[9] = second compound 0.316 µM, first compound 0.0316 µM
[10] = second compound 0.316 µM, first compound 0.1 µM
[11] = second compound 0.316 µM, first compound 0.316 µM
[12] = second compound 0.316 µM, first compound 1 µM
[13] = second compound 1 µM, first compound 0.0316 µM
[14] = second compound 1 µM, first compound 0.1 µM
[15] = second compound 1 µM, first compound 0.316 µM
[16] = second compound 1 µM, first compound 1 µM
[17] = second compound 3.16 µM, first compound 0.0316 µM
[18] = second compound 3.16 µM, first compound 0.1 µM
[19] = second compound 3.16 µM, first compound 0.316 µM
[20] = second compound 3.16 µM, first compound 1 µM
[21] = second compound 10 µM, first compound 0.0316 µM
[22] = second compound 10 µM, first compound 0.1 µM
[23] = second compound 10 µM, first compound 0.316 µM
[24] = second compound 10 µM, first compound 1 µM
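Further: spheroids exposed to compounds for 7 days before readout.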

Question: With `CC(Nc1ccc2c(c1)OCCn1cc(N3C(=O)OCC3C(F)F)nc1-2)C(N)=O` (centres undefined) + CN1CCN(c2cc(C(=O)Nc3cc4cc(-c5cnn(C)c5)ccc4cn3)ccn2)CC1 as the molecule, how does the IC50 (second compound 0.0316 µM) read?
Answer: > 10000 nM

Question: And the IC50 (second compound 0.1 µM)?
Answer: 332 nM

Question: What about the IC50 (second compound 0.316 µM) of the same molecule?
Answer: < 31.6 nM

Question: What about the IC50 (second compound 1 µM) of the same molecule?
Answer: < 31.6 nM

Question: What about the IC50 (second compound 3.16 µM) of the same molecule?
Answer: < 31.6 nM

Question: What about the IC50 (second compound 10 µM) of the same molecule?
Answer: < 31.6 nM

Question: And the viability, T/C [1]?
Answer: 91.9%

Question: And the viability, T/C [2]?
Answer: 82.3%

Question: And the viability, T/C [3]?
Answer: 81.4%

Question: And the viability, T/C [4]?
Answer: 68.3%

Question: What about the viability, T/C (second compound 0.0316 µM, first compound 3.16 µM) of the same molecule?
Answer: 64.8%

Question: And the viability, T/C (second compound 0.0316 µM, first compound 10 µM)?
Answer: 53.1%

Question: And the viability, T/C [5]?
Answer: 67.4%

Question: And the viability, T/C [6]?
Answer: 60.2%

Question: And the viability, T/C [7]?
Answer: 49.9%

Question: And the viability, T/C [8]?
Answer: 41.8%

Question: And the viability, T/C (second compound 0.1 µM, first compound 3.16 µM)?
Answer: 34%

Question: And the viability, T/C (second compound 0.1 µM, first compound 10 µM)?
Answer: 30.2%

Question: What about the viability, T/C [9] of the same molecule?
Answer: 1.28%

Question: And the viability, T/C [10]?
Answer: 1.34%

Question: What about the viability, T/C [11] of the same molecule?
Answer: 0.74%

Question: What about the viability, T/C [12] of the same molecule?
Answer: 0.59%

Question: And the viability, T/C (second compound 0.316 µM, first compound 3.16 µM)?
Answer: 1.78%

Question: And the viability, T/C (second compound 0.316 µM, first compound 10 µM)?
Answer: 0.43%

Question: What about the viability, T/C [13] of the same molecule?
Answer: 0.08%

Question: And the viability, T/C [14]?
Answer: 0.11%

Question: What about the viability, T/C [15] of the same molecule?
Answer: 3.02%

Question: What about the viability, T/C [16] of the same molecule?
Answer: 0.1%

Question: What about the viability, T/C (second compound 1 µM, first compound 3.16 µM) of the same molecule?
Answer: 0.88%

Question: And the viability, T/C (second compound 1 µM, first compound 10 µM)?
Answer: 0.07%

Question: What about the viability, T/C [17] of the same molecule?
Answer: 0.11%

Question: What about the viability, T/C [18] of the same molecule?
Answer: 0.14%

Question: And the viability, T/C [19]?
Answer: 0.15%

Question: And the viability, T/C [20]?
Answer: 0.13%

Question: And the viability, T/C (second compound 3.16 µM, first compound 3.16 µM)?
Answer: 0.13%

Question: And the viability, T/C (second compound 3.16 µM, first compound 10 µM)?
Answer: 0.38%

Question: And the viability, T/C [21]?
Answer: 3.01%

Question: And the viability, T/C [22]?
Answer: 0.2%

Question: And the viability, T/C [23]?
Answer: 0.2%

Question: What about the viability, T/C [24] of the same molecule?
Answer: 0.22%

Question: What about the viability, T/C (second compound 10 µM, first compound 3.16 µM) of the same molecule?
Answer: 0.21%

Question: What about the viability, T/C (second compound 10 µM, first compound 10 µM) of the same molecule?
Answer: 0.23%

Question: For `CCN1CCN(Cc2ccc(Nc3ncc(F)c(-c4cc(F)c5nc(C)n(C(C)C)c5c4)n3)nc2)CC1` + CN1CCN(c2cc(C(=O)Nc3cc4cc(-c5cnn(C)c5)ccc4cn3)ccn2)CC1, which IC50 (second compound 0.0316 µM) is on record?
Answer: > 1000 nM

Question: What about the IC50 (second compound 0.1 µM) of the same molecule?
Answer: > 1000 nM

Question: And the IC50 (second compound 0.316 µM)?
Answer: < 3.16 nM

Question: And the IC50 (second compound 1 µM)?
Answer: < 3.16 nM

Question: What about the IC50 (second compound 3.16 µM) of the same molecule?
Answer: < 3.16 nM

Question: What about the IC50 (second compound 10 µM) of the same molecule?
Answer: < 3.16 nM

Question: And the viability, T/C (second compound 0.0316 µM, first compound 0.00316 µM)?
Answer: 90.9%

Question: What about the viability, T/C (second compound 0.0316 µM, first compound 0.01 µM) of the same molecule?
Answer: 93.5%

Question: And the viability, T/C [1]?
Answer: 78.7%

Question: What about the viability, T/C [2] of the same molecule?
Answer: 79.1%

Question: What about the viability, T/C [3] of the same molecule?
Answer: 71%

Question: And the viability, T/C [4]?
Answer: 62.2%

Question: What about the viability, T/C (second compound 0.1 µM, first compound 0.00316 µM) of the same molecule?
Answer: 77.8%

Question: What about the viability, T/C (second compound 0.1 µM, first compound 0.01 µM) of the same molecule?
Answer: 78.5%

Question: What about the viability, T/C [5] of the same molecule?
Answer: 70.6%

Question: What about the viability, T/C [6] of the same molecule?
Answer: 81.2%

Question: And the viability, T/C [7]?
Answer: 63.5%

Question: What about the viability, T/C [8] of the same molecule?
Answer: 66.9%

Question: What about the viability, T/C (second compound 0.316 µM, first compound 0.00316 µM) of the same molecule?
Answer: 2.22%

Question: And the viability, T/C (second compound 0.316 µM, first compound 0.01 µM)?
Answer: 3.67%

Question: And the viability, T/C [9]?
Answer: 6.55%

Question: And the viability, T/C [10]?
Answer: 7.25%

Question: And the viability, T/C [11]?
Answer: 24.6%

Question: And the viability, T/C [12]?
Answer: 13.8%

Question: What about the viability, T/C (second compound 1 µM, first compound 0.00316 µM) of the same molecule?
Answer: 0.14%

Question: And the viability, T/C (second compound 1 µM, first compound 0.01 µM)?
Answer: 1.49%

Question: What about the viability, T/C [13] of the same molecule?
Answer: 2.77%

Question: What about the viability, T/C [14] of the same molecule?
Answer: 0.19%

Question: What about the viability, T/C [15] of the same molecule?
Answer: 0.21%

Question: And the viability, T/C [16]?
Answer: 0.24%

Question: What about the viability, T/C (second compound 3.16 µM, first compound 0.00316 µM) of the same molecule?
Answer: 0.15%

Question: What about the viability, T/C (second compound 3.16 µM, first compound 0.01 µM) of the same molecule?
Answer: 0.31%

Question: What about the viability, T/C [17] of the same molecule?
Answer: 0.58%

Question: And the viability, T/C [18]?
Answer: 0.16%

Question: What about the viability, T/C [19] of the same molecule?
Answer: 0.2%

Question: What about the viability, T/C [20] of the same molecule?
Answer: 0.28%

Question: And the viability, T/C (second compound 10 µM, first compound 0.00316 µM)?
Answer: 0.13%

Question: And the viability, T/C (second compound 10 µM, first compound 0.01 µM)?
Answer: 0.22%

Question: What about the viability, T/C [21] of the same molecule?
Answer: 0.24%

Question: What about the viability, T/C [22] of the same molecule?
Answer: 0.42%

Question: And the viability, T/C [23]?
Answer: 0.21%

Question: And the viability, T/C [24]?
Answer: 3.78%

Reference: PubChem BioAssay AID2060618 (Molecular Pharmacology Branch, DTP, NCI, 2025)
